Experimental data taken from patent US20260262643A1, “HERBICIDAL BENZOXAZINES” (FMC CORPORATION, priority 2022, published 2026).

Legend:
[1] = test system: corn; assay: Test A postemergence; type: in vivo, Zea mays; settings: postemergence, 10 days
Summary of the method: (§1)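 Plants were grown in loam and sand and treated preemergence or postemergence (one- to two-leaf stage, 2–10 cm) with compound in solvent plus surfactant. Response was scored against untreated controls after 10 greenhouse days, where 0 means no effect and 100 complete control.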

[2] = test system: ryegrass, Italian; assay: Test A postemergence; type: in vivo, Lolium multiflorum; settings: postemergence, 10 days
Summary of the method: as §1

[3] = test system: soybean; assay: Test A postemergence; type: in vivo, Glycine max; settings: postemergence, 10 days
Summary of the method: as §1

[4] = test system: blackgrass; assay: Test A postemergence; type: in vivo, Alopecurus myosuroides; settings: postemergence, 10 days
Summary of the method: as §1

[5] = test system: wheat; assay: Test A preemergence; type: in vivo, Triticum aestivum; settings: visual injury after 10 days, 0 to 100 scale, 0 is no effect, 100 is complete control
Summary of the method: as §1

[6] = test system: ragweed; assay: Test A preemergence; type: in vivo, Ambrosia artemisiifolia; settings: visual injury after 10 days, 0 to 100 scale, 0 is no effect, 100 is complete control
Summary of the method: as §1

[7] = test system: rice; assay: Test B flooded paddy test; type: in vivo, Oryza sativa; settings: 250 g ai/ha, Flood, 13 days, 0 to 100 scale (0 no effect, 100 complete control)
Summary of the method: (§2)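 Application into standing water (3 cm above soil) at the two-leaf stage; flood depth held constant. Evaluation: day 13, visual comparison with controls, 0 = no injury, 100 = complete control.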

[8] = test system: ragweed; assay: Test A postemergence; type: in vivo, Ambrosia artemisiifolia; settings: postemergence, 10 days
Summary of the method: as §1

[9] = test system: soybean; assay: Test A preemergence; type: in vivo, Glycine max; settings: visual injury after 10 days, 0 to 100 scale, 0 is no effect, 100 is complete control
Summary of the method: as §1

[10] = test system: sedge, umbrella; assay: Test B flooded paddy test; type: in vivo, Cyperus difformis; settings: 250 g ai/ha, Flood, 13 days, 0 to 100 scale (0 no effect, 100 complete control)
Summary of the method: as §2

[11] = test system: pigweed, palmer; assay: Test A postemergence; type: in vivo, Amaranthus palmeri; settings: postemergence, 10 days
Summary of the method: as §1

[12] = test system: kochia; assay: Test A postemergence; type: in vivo, Bassia scoparia; settings: postemergence, 10 days
Summary of the method: as §1

[13] = test system: blackgrass; assay: Test A preemergence; type: in vivo, Alopecurus myosuroides; settings: visual injury after 10 days, 0 to 100 scale, 0 is no effect, 100 is complete control
Summary of the method: as §1

[14] = test system: horseweed; assay: Test A postemergence; type: in vivo, Erigeron canadensis; settings: postemergence, 10 days
Summary of the method: as §1

[15] = test system: oat, wild; assay: Test A preemergence; type: in vivo, Avena fatua; settings: visual injury after 10 days, 0 to 100 scale, 0 is no effect, 100 is complete control
Summary of the method: as §1

[16] = test system: barnyardgrass; assay: Test A postemergence; type: in vivo, Echinochloa crusgalli; settings: postemergence, 10 days
From the text: (§3) Seeds of plant species selected from barnyardgrass (Echinochloa crusgalli), blackgrass (Alopecurus myosuroides), corn (Zea mays), foxtail, giant (giant foxtail, Setaria faberi), goosegrass (Eleusine indica), kochia (Bassia scoparia), oat, wild (wild oat, Avena fatua), pigweed, palmer (palmer amaranth, palmer pigweed, Amaranthus palmeri), Pigweed, Redroot (redroot pigweed, Amaranthus retroflexus), ragweed (common ragweed, Ambrosia artemisiifolia), ryegrass, Italian (italian ryegrass, Lolium multiflorum), soybean (Glycine max), and wheat (Triticum aestivum) were planted into a blend of loam soil and sand and treated preemergence with a directed soil spray using test chemicals formulated in a non-phytotoxic solvent mixture which included a surfactant. At the same time, plants selected from these crops and weed species and also galium (catchweed bedstraw, Galium aparine) and horseweed (Erigeron canadensis) were planted in pots containing the same blend of loam soil and sand and treated with postemergence applications of test chemicals formulated in the same manner. Plants ranged in height from 2 to 10 cm and were in the one- to two-leaf stage for the postemergence treatment. Treated plants and untreated controls were maintained in a greenhouse for 10 days, after which time all treated plants were compared to untreated controls and visually evaluated for injury. Plant response ratings, summarized in Table A, are based on a 0 to 100 scale where 0 is no effect and 100 is complete control. A dash (-) response means no test result.

[17] = test system: oat, wild; assay: Test A postemergence; type: in vivo, Avena fatua; settings: postemergence, 10 days
Summary of the method: as §1

[18] = test system: kochia; assay: Test A preemergence; type: in vivo, Bassia scoparia; settings: visual injury after 10 days, 0 to 100 scale, 0 is no effect, 100 is complete control
Summary of the method: as §1

[19] = test system: barnyardgrass; assay: Test A preemergence; type: in vivo, Echinochloa crusgalli; settings: visual injury after 10 days, 0 to 100 scale, 0 is no effect, 100 is complete control
From the text: as §3

[20] = test system: corn; assay: Test A preemergence; type: in vivo, Zea mays; settings: visual injury after 10 days, 0 to 100 scale, 0 is no effect, 100 is complete control
Summary of the method: as §1

[21] = test system: ducksalad; assay: Test B flooded paddy test; type: in vivo, Heteranthera limosa; settings: 250 g ai/ha, Flood, 13 days, 0 to 100 scale (0 no effect, 100 complete control)
Summary of the method: as §2

[22] = test system: pigweed, palmer; assay: Test A preemergence; type: in vivo, Amaranthus palmeri; settings: visual injury after 10 days, 0 to 100 scale, 0 is no effect, 100 is complete control
Summary of the method: as §1

[23] = test system: ryegrass, Italian; assay: Test A preemergence; type: in vivo, Lolium multiflorum; settings: visual injury after 10 days, 0 to 100 scale, 0 is no effect, 100 is complete control
Summary of the method: as §1

[24] = test system: wheat; assay: Test A postemergence; type: in vivo, Triticum aestivum; settings: postemergence, 10 days
Summary of the method: as §1

[25] = test system: galium; assay: Test A postemergence; type: in vivo, Galium aparine; settings: postemergence, 10 days
Summary of the method: as §1

[26] = test system: barnyardgrass; assay: Test B flooded paddy test; type: in vivo, Echinochloa crus-galli; settings: 250 g ai/ha, Flood, 13 days, 0 to 100 scale (0 no effect, 100 complete control)
Summary of the method: as §2

[27] = 125 g ai/ha, 0 to 100 scale, 0 no effect, 100 complete control
[28] = 500 g ai/ha, visual injury, 0 to 100 scale (0 no effect, 100 complete control)

SMILES: C[C@H]1CN(C(=O)c2cc(C3CC3)cc(-n3cncn3)c2)c2cccc(Cl)c2O1 [Compound 136]
- Corn plant response rating [1, 27]: 30
- Plant response rating, Corn [1, 28]: 90
- Ryegrass, Italian plant response rating [2, 27]: 60
- Plant response rating, Ryegrass, Italian [2, 28]: 90
- Soybean plant response rating [3, 27]: 100
- Plant response rating, Soybean [3, 28]: 100
- Blackgrass plant response rating [4, 27]: 90
- Plant response rating, Blackgrass [4, 28]: 100
- Plant response rating, Wheat ([5]; 125 g ai/ha): 10
- Plant response rating, Wheat ([5]; 500 g ai/ha): 30
- Plant response rating, Ragweed ([6]; 125 g ai/ha): 0
- Plant response rating, Ragweed ([6]; 500 g ai/ha): 20
- Plant response rating, Rice [7]: 0
- Ragweed plant response rating [8, 27]: 20
- Plant response rating, Ragweed [8, 28]: 30
- Plant response rating, Soybean ([9]; 125 g ai/ha): 10
- Plant response rating, Soybean ([9]; 500 g ai/ha): 60
- Plant response rating, Sedge, Umbrella [10]: 0
- Pigweed, Palmer plant response rating [11, 27]: 30
- Plant response rating, Pigweed, Palmer [11, 28]: 90
- Kochia plant response rating [12, 27]: 30
- Plant response rating, Kochia [12, 28]: 70
- Plant response rating, Blackgrass ([13]; 125 g ai/ha): 70
- Plant response rating, Blackgrass ([13]; 500 g ai/ha): 90
- Horseweed plant response rating [14, 27]: 0
- Plant response rating, Horseweed [14, 28]: 0
- Plant response rating, Oat, Wild ([15]; 125 g ai/ha): 20
- Plant response rating, Oat, Wild ([15]; 500 g ai/ha): 30
- Barnyardgrass plant response rating [16, 27]: 20
- Plant response rating, Barnyardgrass [16, 28]: 70
- Oat, Wild plant response rating [17, 27]: 10
- Plant response rating, Oat, Wild [17, 28]: 30
- Plant response rating, Kochia ([18]; 125 g ai/ha): 0
- Plant response rating, Kochia ([18]; 500 g ai/ha): 70
- Plant response rating, Barnyardgrass ([19]; 125 g ai/ha): 30
- Plant response rating, Barnyardgrass ([19]; 500 g ai/ha): 90
- Plant response rating, Corn ([20]; 125 g ai/ha): 0
- Plant response rating, Corn ([20]; 500 g ai/ha): 30
- Plant response rating, Ducksalad [21]: 0
- Plant response rating, Pigweed, Palmer ([22]; 125 g ai/ha): 70
- Plant response rating, Pigweed, Palmer ([22]; 500 g ai/ha): 100
- Plant response rating, Ryegrass, Italian ([23]; 125 g ai/ha): 80
- Plant response rating, Ryegrass, Italian ([23]; 500 g ai/ha): 90
- Wheat plant response rating [24, 27]: 20
- Plant response rating, Wheat [24, 28]: 30
- Galium plant response rating [25, 27]: 80
- Plant response rating, Galium [25, 28]: 100
- Plant response rating, Barnyardgrass [26]: 0
